{"source": "patent US10400004B2", "about": "“Chemical synthesis method of phillyrin” (priority 2014, dated 2019)", "key": {"[1]": {"tested_on": "Coxsackie virus A16 (CoxA16)", "test": "Impact of the drugs on virus-induced cytopathy (MTT, ER %)", "type": "cell-based"}, "[2]": {"tested_on": "Herpes simplex virus type I (HSV-1)", "test": "Impact of the drugs on virus-induced cytopathy (MTT, ER %)", "type": "cell-based"}, "[3]": {"tested_on": "influenza virus", "type": "in vivo, Kunming mice"}, "[4]": {"tested_on": "parainfluenza virus", "type": "in vivo, Kunming mice"}, "[5]": {"tested_on": "Adenovirus (AdV)", "test": "Impact of the drugs on virus-induced cytopathy (MTT, ER %)", "type": "cell-based"}, "[6]": {"tested_on": "respiratory syncytical virus (RSV)", "test": "Impact of the drugs on virus-induced cytopathy (MTT, ER %)", "type": "cell-based"}, "[7]": {"tested_on": "Influenza virus", "test": "Impact of the drugs on virus-induced cytopathy (MTT, ER %)", "type": "cell-based"}, "[8]": {"tested_on": "Coxsackie virus B3 (CVB3)", "test": "Impact of the drugs on virus-induced cytopathy (MTT, ER %)", "type": "cell-based"}, "[9]": {"tested_on": "Vero cells", "test": "Drug cytotoxicity assay (MTT) on Vero cells", "type": "cell-based, African green monkey", "settings": "72 h, Probit regression", "method": "Vero cells were subcultured for 1-2 days to form a film. […] The digestion was drained after needle-like holes occurred on the cell surface, then cells were dispersed with a few milliliters of medium, counted, then diluted to about 5×10^7 cells/L with DMEM containing 10% fetal bovine serum and transferred to a 96-pore culture plate until monolayer formed.\nCytotoxicity test: the drugs were diluted according to the concentrations shown in Table 1-1 for cytotoxicity assays.\nDifferent concentrations of drugs diluted with the above maintenance medium (DMEM containing 2% fetal calf serum) were added dropwise to Vero monolayer cells with 0.2 ml per pore, and for each concentration, the drugs were added in sextuplicate in 6 pores respectively. In addition, 6 pores were set up as normal control (without drugs) while another 6 pores as blank control (medium only). Cells were grown in a 37° C. incubator under 5% CO2. CPE was visualized under the invert microscope and recorded daily. After 72 h, 20 μL MTT solution (5 mg·mL^−1) was added into each pore and incubated for 4 h. The culture medium in each pore was sucked and discarded, 100 μL DMSO was added to each pore. Then the culture was shaken for 5 min, measured OD value at 492 nm to calculate the cell survival ratio. The cell survival ratio was analyzed using a Probit regression model in SPSS 18.0 statistical software, and the maximal nontoxic concentration (TC0) and median toxic concentration (TC50) of drugs against Vero cells were calculated."}, "[10]": {"tested_on": "Parainfluenza virus", "test": "Impact of the drugs on virus-induced cytopathy (MTT, ER %)", "type": "cell-based"}, "[11]": {"tested_on": "enterovirus EV71", "test": "Impact of the drugs on virus-induced cytopathy (MTT, ER %)", "type": "cell-based"}, "[12]": {"test": "Solubility of the synthesized white solid", "type": "physicochemical", "settings": "white solid of Embodiment 1"}, "[13]": {"settings": "mice, influenza virus 15LD50 nasally, 19.5 mg/kg/d intragastric, 5 days"}, "[14]": {"settings": "mice, parainfluenza virus 15LD50 nasally, 19.5 mg/kg/d intragastric, 5 days"}, "[15]": {"settings": "summary of Table 1-3, Vero cells"}, "[16]": {"settings": "mice, parainfluenza virus 15LD50 nasally, 3.25 mg/kg/d (low-dose) intragastric, 5 days"}}, "note": "Like-named read-outs stand apart in the source and are kept apart here. Marks after values point to notes of the source that are not given here.", "data": [{"molecule": "CCOC(=O)C1=C[C@@H](OC(CC)CC)[C@H](NC(C)=O)[C@@H](N)C1", "note": "[Oseltamivir phosphate, reference compound]", "values": [{"measurement": "antiviral efficiency (ER %)", "setting": "[1]", "result": 2.95, "unit": "%"}, {"measurement": "antiviral efficiency (ER %)", "setting": "[2]", "result": "66.56** %"}, {"measurement": "Lung index (X ± S)", "setting": "[3]; [13]", "result": "1.191 ± 0.062"}, {"measurement": "Lung index Inhibitory rate (%)", "setting": "[3]; [13]", "result": 20.71, "unit": "%"}, {"measurement": "Lung index (X ± S)", "setting": "[4]; [14]", "result": "1.256 ± 0.057"}, {"measurement": "Lung index Inhibitory rate (%)", "setting": "[4]; [14]", "result": 21.56, "unit": "%"}, {"measurement": "antiviral efficiency (ER %)", "setting": "[5]", "result": 10.31, "unit": "%"}, {"measurement": "antiviral efficiency (ER %)", "setting": "[6]", "result": 37.60, "unit": "%"}, {"measurement": "antiviral efficiency (ER %)", "setting": "[7]; Vero cells, 100 TCID50, 72 h, MTT, drug at maximal non-cytotoxic concentration or so (Table 1-2 last row: phillyrin 0.01, ribavirin 0.70, oseltamivir phosphate 0.30 g/L)", "result": "81.76** %"}, {"measurement": "antiviral efficiency (ER %)", "setting": "[8]", "result": 1.64, "unit": "%"}, {"measurement": "Maximal non-cytotoxic concentration (TC0)", "setting": "[9]", "result": 0.28, "unit": "g/L"}, {"measurement": "Median toxic concentration (TC50)", "setting": "[9]", "result": 832, "unit": "µg/mL"}, {"measurement": "antiviral efficiency (ER %)", "setting": "[10]", "result": "94.52** %"}, {"measurement": "antiviral efficiency (ER %)", "setting": "[11]", "result": 51.86, "unit": "%"}]}, {"molecule": "phillyrin", "values": [{"measurement": "antiviral efficiency (ER %)", "setting": "[1]", "result": "75.08** %"}, {"measurement": "inhibitory effect (in words)", "setting": "[1]; [15]", "result": "significant"}, {"measurement": "antiviral efficiency (ER %)", "setting": "[2]", "result": "85.00** %"}, {"measurement": "inhibitory effect (in words)", "setting": "[2]; [15]", "result": "significant"}, {"measurement": "effect on mice viral pneumonia (in words)", "setting": "[3]; influenza virus, 3.25 to 13.0 mg/kg/d", "result": "significant inhibitory effect"}, {"measurement": "hemagglutination titers (in words)", "setting": "[3]; influenza virus, 3.25 to 13.0 mg/kg/d, compared to virus control group", "result": "greatly reduce"}, {"measurement": "Lung index (X ± S)", "setting": "[3]; mouse, in vivo, 3.25 mg/kg/day", "result": "1.339 ± 0.045"}, {"measurement": "Lung index Inhibitory rate (%)", "setting": "[3]; mouse, in vivo, 3.25 mg/kg/day", "result": 10.82, "unit": "%"}, {"measurement": "Lung index (X ± S)", "setting": "[3]; mouse, in vivo, 13 mg/kg/day", "result": "1.290 ± 0.041"}, {"measurement": "Lung index Inhibitory rate (%)", "setting": "[3]; mouse, in vivo, 13 mg/kg/day", "result": 14.51, "unit": "%"}, {"measurement": "Lung index (X ± S)", "setting": "[4]; [16]", "result": "1.360 ± 0.052"}, {"measurement": "Lung index Inhibitory rate (%)", "setting": "[4]; [16]", "result": 15.03, "unit": "%"}, {"measurement": "Lung index (X ± S)", "setting": "[4]; mouse, in vivo, 13 mg/kg/day", "result": "1.2297 ± 0.071"}, {"measurement": "Lung index Inhibitory rate (%)", "setting": "[4]; mouse, in vivo, 13 mg/kg/day", "result": 19.01, "unit": "%"}, {"measurement": "effect on mice viral pneumonia (in words)", "setting": "[4]; parainfluenza virus, 3.25 to 13.0 mg/kg/d", "result": "significant inhibitory effect"}, {"measurement": "hemagglutination titers (in words)", "setting": "[4]; parainfluenza virus, 3.25 to 13.0 mg/kg/d, compared to virus control group", "result": "greatly reduce"}, {"measurement": "antiviral efficiency (ER %)", "setting": "[5]", "result": "75.14** %"}, {"measurement": "inhibitory effect (in words)", "setting": "[5]; [15]", "result": "significant"}, {"measurement": "antiviral efficiency (ER %)", "setting": "[6]", "result": "80.40** %"}, {"measurement": "inhibitory effect (in words)", "setting": "[6]; [15]", "result": "significant"}, {"measurement": "antiviral efficiency (ER %)", "setting": "[7]", "result": "75.38** %"}, {"measurement": "inhibitory effect (in words)", "setting": "[7]; [15]", "result": "significant"}, {"measurement": "antiviral efficiency (ER %)", "setting": "[8]", "result": "75.27** %"}, {"measurement": "inhibitory effect (in words)", "setting": "[8]; [15]", "result": "significant"}, {"measurement": "solubility (in words)", "setting": "[12]", "result": "soluble in chloroform and methanol"}, {"measurement": "Maximal non-cytotoxic concentration (TC0)", "setting": "[9]", "result": 0.006, "unit": "g/L"}, {"measurement": "Median toxic concentration (TC50)", "setting": "[9]", "result": 550, "unit": "µg/mL"}, {"measurement": "antiviral efficiency (ER %)", "setting": "[10]", "result": "84.96** %"}, {"measurement": "inhibitory effect (in words)", "setting": "[10]; [15]", "result": "significant"}, {"measurement": "antiviral efficiency (ER %)", "setting": "[11]", "result": "84.85** %"}, {"measurement": "inhibitory effect (in words)", "setting": "[11]; [15]", "result": "significant"}]}]}
